For 1 compound, Activity and inhibition results are on record in ChEMBL document CHEMBL4665874, “The splicing modulator sulfonamide indisulam reduces AR-V7 in prostate cancer cells” (2020).

SMILES strings stand for the structures. Active and inactive are the calls of the source. The rule behind the calls is not given here.

In experiment [1] the target is T1, Androgen receptor (Homo sapiens) (UniProt P10275).
T1 sequence (whole entry): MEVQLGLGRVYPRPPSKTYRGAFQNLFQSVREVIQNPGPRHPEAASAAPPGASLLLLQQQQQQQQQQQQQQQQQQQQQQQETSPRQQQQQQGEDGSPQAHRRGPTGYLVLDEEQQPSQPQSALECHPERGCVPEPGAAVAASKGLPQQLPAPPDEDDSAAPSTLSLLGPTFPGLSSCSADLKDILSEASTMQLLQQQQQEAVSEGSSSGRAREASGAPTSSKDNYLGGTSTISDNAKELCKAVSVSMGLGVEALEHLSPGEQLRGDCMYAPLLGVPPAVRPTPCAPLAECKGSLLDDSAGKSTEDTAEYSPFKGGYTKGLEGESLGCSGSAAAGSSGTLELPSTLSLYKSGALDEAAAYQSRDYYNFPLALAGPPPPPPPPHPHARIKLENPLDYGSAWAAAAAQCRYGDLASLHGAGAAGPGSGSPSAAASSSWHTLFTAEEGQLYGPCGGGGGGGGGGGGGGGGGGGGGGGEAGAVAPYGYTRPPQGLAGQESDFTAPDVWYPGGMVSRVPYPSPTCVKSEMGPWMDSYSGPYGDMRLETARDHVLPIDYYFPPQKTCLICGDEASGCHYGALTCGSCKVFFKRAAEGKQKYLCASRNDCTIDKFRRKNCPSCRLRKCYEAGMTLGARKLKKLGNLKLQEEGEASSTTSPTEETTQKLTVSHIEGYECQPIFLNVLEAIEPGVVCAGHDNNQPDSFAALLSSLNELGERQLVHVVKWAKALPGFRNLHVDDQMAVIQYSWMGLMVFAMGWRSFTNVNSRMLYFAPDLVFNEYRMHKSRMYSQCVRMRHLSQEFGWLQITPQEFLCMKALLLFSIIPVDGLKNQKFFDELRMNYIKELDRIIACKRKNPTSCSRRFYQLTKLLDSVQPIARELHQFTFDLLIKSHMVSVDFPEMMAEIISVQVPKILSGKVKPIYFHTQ
As to the kind of experiment: Antagonist activity at AR in human VCaP cells assessed as upregulation of DHT-suppressed AR-V7 mRNA transcript level at 10 uM preincubated for 24 hrs with DHT followed by wash-out and then incubated with compound for 24 hrs by RT-qPCR analysis. In kind it is cell-based.

Experiment [2] relates to Mus musculus. Kind of experiment: Reduction in total AR isoforms in tumor lysates of NSG mouse xenografted with human VCaP cells at 10 mg/kg, po co-administered with 25 mg/kg AR antagonist MDV via gavage with 5 days on and 2 days off dosing schedule for 6 weeks by immunoblot analysis. The format is functional, organism-based. The note with it: Neoplasm. In general terms: In xenograft studies the graft and the host belong to different species.

Experiment [3] deals with VCaP. Kind of experiment: Effect on full-length AR mRNA level in human VCaP cells at 10 uM after 24 hrs by RT-qPCR analysis. In kind it is functional, cell-based. (Quantitative PCR measures a nucleic acid by following its amplification.)
Experiment [4] relates to Mus musculus. As to the kind of experiment: Reduction in total AR isoforms in tumor lysates of NSG mouse xenografted with human VCaP cells at 10 mg/kg, po administered via gavage with 5 days on and 2 days off dosing schedule for 6 weeks by immunoblot analysis. In kind it is functional, organism-based. The note with it: Neoplasm.
Experiment [5] deals with T2, RNA-binding protein 39 (Homo sapiens) (UniProt Q14498).
T2 sequence (whole entry): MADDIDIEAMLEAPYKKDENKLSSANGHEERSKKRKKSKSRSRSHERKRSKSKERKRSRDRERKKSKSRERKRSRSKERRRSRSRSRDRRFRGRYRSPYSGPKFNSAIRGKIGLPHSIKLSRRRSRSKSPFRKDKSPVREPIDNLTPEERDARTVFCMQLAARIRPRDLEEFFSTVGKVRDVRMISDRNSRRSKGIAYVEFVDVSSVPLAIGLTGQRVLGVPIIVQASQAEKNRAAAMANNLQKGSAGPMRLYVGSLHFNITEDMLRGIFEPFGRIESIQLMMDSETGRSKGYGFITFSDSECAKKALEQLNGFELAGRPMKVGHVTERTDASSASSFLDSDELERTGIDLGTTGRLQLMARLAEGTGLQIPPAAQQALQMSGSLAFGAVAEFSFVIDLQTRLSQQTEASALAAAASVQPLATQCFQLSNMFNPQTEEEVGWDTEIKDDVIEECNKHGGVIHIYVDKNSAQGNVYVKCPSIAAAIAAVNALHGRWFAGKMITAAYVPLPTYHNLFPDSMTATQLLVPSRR
Kind of experiment: Induction of RBM39 degradation in human VCaP cells assessed as reduction in AR-V7 protein expression preincubated for 24 hrs with DHT followed by wash-out and incubated with compound for 24 hrs in presence of AR antagonist MDV by western blot analysis. In kind it is cell-based. In general terms: A western blot detects proteins with antibodies after separation by electrophoresis.

Experiment [6] has as its system Mus musculus. As to the kind of experiment: Reduction in AR-V7 level in tumor lysates of NSG mouse xenografted with human VCaP cells at 10 mg/kg, po administered via gavage with 5 days on and 2 days off dosing schedule for 6 weeks by immunoblot analysis. The format is functional, organism-based. The note with it: Neoplasm.
Experiment [7] has as its system Mus musculus. As to the kind of experiment: Reduction in AR-V7 level in tumor lysates of NSG mouse xenografted with human VCaP cells at 10 mg/kg, po co-administered with 25 mg/kg AR antagonist MDV via gavage with 5 days on and 2 days off dosing schedule for 6 weeks by immunoblot analysis. In kind it is functional, organism-based. The note with it: Neoplasm.
Experiment [8] deals with Mus musculus. Kind of experiment: Reduction in RBM39 level in tumor lysates of NSG mouse xenografted with human VCaP cells at 10 mg/kg, po administered via gavage with 5 days on and 2 days off dosing schedule for 6 weeks by immunoblot analysis. As to conditions: Neoplasm. In kind it is functional, organism-based.
In experiment [9] the test system is VCaP. As to the kind of experiment: Recovery of DHT-suppressed full length AR mRNA expression in human VCaP cells at 10 uM preincubated for 24 hrs with DHT followed by wash-out and then incubated with compound for 24 hrs by RT-qPCR analysis. The format is functional, cell-based.
The test system of experiment [10] is VCaP. Kind of experiment: Effect on MDV-induced recovery of DHT-suppressed full length AR mRNA expression in human VCaP cells at 10 uM preincubated for 24 hrs with DHT followed by wash-out and then incubated with compound for 24 hrs in presence of AR antagonist , MDV by RT-qPCR analysis. The format is functional, cell-based.
Experiment [11] addresses T2, RNA-binding protein 39 (Homo sapiens). As to the kind of experiment: Induction of RBM39 degradation in human VCaP cells assessed as reduction in RBM39 protein expression at 10 uM preincubated for 24 hrs with DHT followed by wash-out and incubated with compound for 24 hrs in presence of AR antagonist MDV by western blot analysis. The format is cell-based.
Experiment [12] deals with Mus musculus. As to the kind of experiment: Reduction in RBM39 level in tumor lysates of NSG mouse xenografted with human VCaP cells at 10 mg/kg, po co-administered with 25 mg/kg AR antagonist MDV via gavage with 5 days on and 2 days off dosing schedule for 6 weeks by immunoblot analysis. The format is functional, organism-based. The note with it: Neoplasm.
The target in experiment [13] is T2, RNA-binding protein 39 (Homo sapiens). As to the kind of experiment: Induction of RBM39 degradation in human VCaP cells assessed as AR splicing modulation by measuring reduction in AR-V7 splice variant mRNA transcript level incubated for 24 hrs in presence of AR antagonist MDV by RT-qPCR analysis. In kind it is cell-based.
Experiment [14] has the same target. Kind of experiment: Induction of RBM39 degradation in human VCaP cells assessed as reduction in RBM39 protein expression preincubated for 24 hrs with DHT followed by wash-out and incubated with compound for 24 hrs in presence of AR antagonist MDV by western blot analysis. In kind it is cell-based.
The test system of experiment [15] is VCaP. As to the kind of experiment: Antitumor activity against human VCaP cells xenografted in NSG mouse assessed as tumor volume at 10 mg/kg, po administered via gavage with 5 days on and 2 days off dosing schedule for 6 weeks and measured bi-weekly for 6 weeks. In kind it is functional.
Experiment [16] deals with VCaP. As to the kind of experiment: Antiproliferative activity against human VCaP cells assessed as reduction in cell viability at 1 to 10 uM after 14 days in presence of AR antagonist MDV by Celltiter-Glo luminescence assay. The format is functional, cell-based. As to conditions: dose microM 1-10, time 14.0 day.
Experiment [17] has as its system VCaP. As to the kind of experiment: Antitumor activity against human VCaP cells xenografted in NSG mouse assessed as tumor volume at 10 mg/kg, po co-administered with 25 mg/kg AR antagonist MDV via gavage with 5 days on and 2 days off dosing schedule for 6 weeks and measured bi-weekly for 6 weeks (reference value: 698.9 +/-286.5 […]). The format is functional.

Turning to `NS(=O)(=O)c1ccc(S(=O)(=O)Nc2cccc3c(Cl)c[nH]c23)cc1` [INDISULAM], the outcome (in experiment [1]; with VCaP [3]; in the experiment with VCaP [10]) was inactive. Further, the inhibition entry with Mus musculus [2], with Mus musculus [4], with Mus musculus [6], in the experiment with Mus musculus [7] and in the experiment with Mus musculus [8] was “Active” throughout. The Activity result in experiment [5] is “Dose-dependent effect”; in [13], “Dose-dependent effect”; in experiment [14] it was “Dose-dependent effect”; in the experiment on VCaP [15], 152 mm3; with VCaP [17], 409 mm3. The outcome (with VCaP [9]; in [11]; with VCaP [16]) was Active. Also, in the experiment on Mus musculus [12], the inhibition entry was “inactive”.
